Entries after “also recorded” stand apart in the source; their conditions may differ. Bounds are passed on as bounds.

Series [1] relates to C2C12 cells. Put plainly: Viability of C2C12 cells visualized by light microscopy. It is filed as cell-based, mouse. To be noted: 24 h.
Series [2] has as its system Toll-like receptor 9 (TLR9) trafficking in HEK293 cells transfected with HA-TLR9. Put plainly: TLR9-trafficking assay. It is filed as cell-based, human. To be noted: 24 h treatment. How it is done:
TLR^9-trafficking assay (Yang, Y. et al. Heat shock protein gp96 is a master chaperone for toll-like receptors and is important in the innate function of macrophages. Immunity 26, 215-26 (2007)). HEK 293T cells were transfected with pUNO-hTLR9-HA (Invivogen) using X-tremgene HP (Roche) according to the manufacturer's instructions. At 24 hrs post-transfection, cells were split onto cell culture chamber slides (Lab-Tek). Cells were then treated for 24 hrs with indicated compound at varying concentrations. After treatment, cells were fixed for 20 min in 4% paraformaldehyde in PBS, permeabilized with 0.1% Triton-X 100 in PBS for 10 min, blocked with 3% BSA in PBS for 30 min, followed by staining for 1 hr with an anti-HA antibody (Abcam, ab9110) or a normal rabbit IgG. Cells were washed with PBS, stained with an anti-rabbit-Cy3 antibody (Invitrogen) and finally mounted in the dark at 4° C. with Prolong Gold Antifade reagent (with DAPI). Cells were visualized under a confocal microscope (Leica Upright Confocal SP5). Fluorescence intensity was quantified using MetaMorph Microscopy Automation and Image Analysis Software (Molecular Devices Inc.) and normalized to the cell number.

Series [3] deals with Hsp70 induction in HEK293 cells. Put plainly: Hsp70 induction in HA-TLR9 transfected HEK293 cells. To be noted: 24 h. It is filed as cell-based, human. How it is done: Cell fractionation and immunoblotting. Cells were either treated with DMSO (vehicle) or indicated compounds for 24 hr and lysed in RIPA buffer (50 mM Tris-HCl, pH 7.4, 150 mM NaCl, 0.5% sodium deoxycholate and 0.5% NP40) supplemented with cocktail protease inhibitors (Roche) to produce whole cell lysates. Lysates for cytosol and membrane fractions were harvested using ProteoExtract Subcellular Proteome Extraction Kit (Calbiochem) following the manufacturer's instructions. Protein concentrations were determined using BCA kit (Pierce) according to the manufacturer's instructions. The protein lysates ([…]) were electrophoretically resolved by SDS-PAGE, transferred onto nitrocellulose membranes and probed with the indicated primary antibodies against: HER^2 (Zymed, 28004), Hsp70 (Stressgen, SPA-810), Grp94 (Stressgen, SPA-850), Hsp90α (Abcam, Ab2928), Hsp90β (StressMarq, SMC-107B), Grp78 (Cell Signaling, 3183), Raf-1 (Santa Cruz, sc-133), phospho-Raf-1 (Cell Signaling, 9421), MEK1/2 (Cell Signaling, 8727), phospho-MEK1/2 (Cell Signaling, 9154), ERK1/2 (Cell Signaling, 4695), phospho-ERK1/2 (Cell Signaling, 4370), AKT (Cell Signaling, 9272), GM130 (Cell Signaling, 2296), Flotillin 2 (Cell Signaling, 3436), Histone H4 (Cell Signaling, 2592), Histone H1 (Santa Cruz, sc-8030), Caspase 3 (Cell Signaling, 9665), cleaved PARP (Promega, G7341), a-tubulin (Sigma, T5168) and 3-actin (Sigma, A1978). After washing off the excess antibodies, the membranes were incubated with the corresponding horseradish peroxidase (HRP) conjugated secondary antibody. Blots were visualized by autoradiography using the Enhanced Chemiluminescence Detection System (GE Healthcare) according to manufacturer's instructions. […]
TLR^9-trafficking assay (Yang, Y. et al. Heat shock protein gp96 is a master chaperone for toll-like receptors and is important in the innate function of macrophages. Immunity 26, 215-26 (2007)). […] Fluorescence intensity was quantified using MetaMorph Microscopy Automation and Image Analysis Software (Molecular Devices Inc.) and normalized to the cell number.

In series [4] the test system is IGF-II secretion by differentiated C2C12 cells. Put plainly: C2C12 differentiation and IGF-II secretion assay. It is filed as cell-based, mouse. To be noted: 24 hrs treatment. An excerpt: C2C12 differentiation and IGF-II secretion assay (Wanderling, S. et al. GRP94 is essential for mesoderm induction and muscle development because it regulates insulin-like growth factor secretion. Mol. Biol. Cell 18, 3764-75 (2007); Ostrovsky, O., Ahmed, N.T. & Argon, Y. The chaperone activity of GRP94 toward insulin-like growth factor II is necessary for the stress response to serum deprivation. Mol. Biol. Cell 20, 1855-64 (2009)). C2C12 cells were maintained and cultured in DMEM in the presence of 10% FBS and 1% penicillin/streptomycin (Culture medium). C2C12 is an immortal line of mouse skeletal myoblasts originally derived from satellite cells from the thigh muscle of a two month old female mouse donor. These cells differentiate well into myocytes under appropriate culture conditions. […] Secreted IGF-II was quantified by using IGF-II mouse ELISA kit (Abcam, AB100696) according to the manufacturer's instructions. […] The bound IGF-II was detected with a biotinylated anti-IGF-II antibody. After the sequential incubation with HRP conjugated streptavidin, TMB One-step substrate reagent and the Stop solution, the absorbance was measured at 450 nm. The secreted IGF-II was quantified against a standard curve generated with recombinant IGF-II provided by the kit.

For series [5], the system named is HER2 at the plasma membrane of SKBr3 cells. Put plainly: Immunofluorescence of HER2 architecture at the plasma membrane. It is filed as cell-based. How it is done: We next investigated the biological significance of the unique association of HER^2 with Grp94 at the plasma membrane of SKBr3 cells. Because the Grp94 inhibitors described here target the ATP-binding pocket of Grp94, they affect Grp94 chaperone activity. Therefore we hypothesized that Grp94 may act on HER^2 at the plasma membrane to stabilize the protein and to regulate its function.
Immunofluorescence. Cells were seeded and grown onto culture slides (BD Falcon) for 24 hrs. After washing with cold PBS, cells were fixed by treating at 4° C. for 20 min with 4% paraformaldehyde in PBS, permeabilized with 0.1% Triton X-100 in PBS containing 10% FBS for 10 min, and blocked with 2% BSA for 1 hr. After washing for four times with PBS, primary antibodies were added onto the chambers and cell were incubated overnight at 4° C., washed again with PBS followed by incubation with the secondary antibody for 1 hr at room temperature. Cell were washed and then mounted and observed under microscope (Leica Upright Confocal SP5). The primary antibodies used in the assay are against: HER^2 (Zymed, 28004), Grp94 (Stressgen, SPA-850), Hsp70 (Stressgen, SPA-810), LAMP1-FITC (Abcam, ab25406), EEA1 (Abcam, ab70521), 58K Golgi-FITC (Abcam, ab27043) and Calnexin (BD, 610523).

The test system of series [6] is PANC-1 cells. Put plainly: Apoptosis assessment (Annexin V / 7AAD). It is filed as cell-based. An excerpt:
Annexin V Apoptosis with 7-AAD has been specifically designed for the identification of apoptotic and necrotic cells. Annexin V (or Annexin A5) is a member of the annexin family of intracellular proteins that binds to phosphatidylserine (PS) in a calcium-dependent manner. PS is normally only found on the intracellular leaflet of the plasma membrane in healthy cells, but during early apoptosis, membrane asymmetry is lost and PS translocates to the external leaflet. Fluorochrome-labeled Annexin V can then be used to specifically target and identify apoptotic cells. Annexin V binding alone cannot differentiate between apoptotic and necrotic cells. To help distinguish between the necrotic and apoptotic cells 7-amino-actinomycin D (7-AAD) is used. Early apoptotic cells will exclude 7-AAD, while late stage apoptotic cells will stain positively, due to the passage of these dyes into the nucleus where they bind to DNA. 7-AAD (7-amino-actinomycin D) has a high DNA binding constant and is efficiently excluded by intact cells. It is useful for DNA analysis and dead cell discrimination during flow cytometric analysis. When excited by 488 laser light, 7-AAD fluorescence is detected in the far red range of the spectrum (650 nm long-pass filter).
Cell cycle and apoptosis assessment. Cell cycle and apoptosis were assessed by flow cytometry after single staining with propidium iodide (PI, BD Pharmingen) or double staining with AnnexinV-FITC (BD Pharmingen) and 7AAD (BD Pharmingen), respectively. Specifically, for cell cycle analysis, cells were washed twice with cold PBS and fixed in 70% ethanol overnight at 4° C. Fixed cells were collected at 1800 rpm for 10 min and stained with PBS containing PI and DNase-free RNase A (Sigma-Aldrich) for 1 h at room temperature in the dark. DNA content was measured by BD LSRII flow cytometer and cell further analyzed using program of cell cycle analysis in FloJo (Ashland, OR). The chicken erythrocyte nuclei singlets (CEN, Biosure) were used as the reference. For apoptosis assessment, live cells were collected, washed twice with cold PBS, resuspended in Binding Buffer and stained with AnnexinV-FITC and 7AAD for 15 min at room temperature in the dark. Signals from FL1 and FL3 channels were collected by MACSQuant analyzer and further analyzed using FloJo. Early apoptosis was defined as AnnexinV+/7AAD−, and late apoptosis was observed as AnnexinV+/7AAD+.

Series [7] has as its system Hsp70 induction and AKT degradation (cytosolic Hsp90 hallmarks) in C2C12 cells. Put plainly: Western blot of Hsp70 induction and AKT degradation in C2C12 cells. It is filed as cell-based, mouse. To be noted: 24 hrs. For orientation: Immunoblotting shows a protein as a band on a membrane.
Description: Cell fractionation and immunoblotting. Cells were either treated with DMSO (vehicle) or indicated compounds for 24 hr and lysed in RIPA buffer (50 mM Tris-HCl, pH 7.4, 150 mM NaCl, 0.5% sodium deoxycholate and 0.5% NP40) supplemented with cocktail protease inhibitors (Roche) to produce whole cell lysates. Lysates for cytosol and membrane fractions were harvested using ProteoExtract Subcellular Proteome Extraction Kit (Calbiochem) following the manufacturer's instructions. Protein concentrations were determined using BCA kit (Pierce) according to the manufacturer's instructions. […] After washing off the excess antibodies, the membranes were incubated with the corresponding horseradish peroxidase (HRP) conjugated secondary antibody. Blots were visualized by autoradiography using the Enhanced Chemiluminescence Detection System (GE Healthcare) according to manufacturer's instructions. For all gels 3-actin was used as a protein loading control.
The target of series [8] is T1, Trap-1 (Homo sapiens, UniProt Q12931).
T1 sequence (Q12931 60-704): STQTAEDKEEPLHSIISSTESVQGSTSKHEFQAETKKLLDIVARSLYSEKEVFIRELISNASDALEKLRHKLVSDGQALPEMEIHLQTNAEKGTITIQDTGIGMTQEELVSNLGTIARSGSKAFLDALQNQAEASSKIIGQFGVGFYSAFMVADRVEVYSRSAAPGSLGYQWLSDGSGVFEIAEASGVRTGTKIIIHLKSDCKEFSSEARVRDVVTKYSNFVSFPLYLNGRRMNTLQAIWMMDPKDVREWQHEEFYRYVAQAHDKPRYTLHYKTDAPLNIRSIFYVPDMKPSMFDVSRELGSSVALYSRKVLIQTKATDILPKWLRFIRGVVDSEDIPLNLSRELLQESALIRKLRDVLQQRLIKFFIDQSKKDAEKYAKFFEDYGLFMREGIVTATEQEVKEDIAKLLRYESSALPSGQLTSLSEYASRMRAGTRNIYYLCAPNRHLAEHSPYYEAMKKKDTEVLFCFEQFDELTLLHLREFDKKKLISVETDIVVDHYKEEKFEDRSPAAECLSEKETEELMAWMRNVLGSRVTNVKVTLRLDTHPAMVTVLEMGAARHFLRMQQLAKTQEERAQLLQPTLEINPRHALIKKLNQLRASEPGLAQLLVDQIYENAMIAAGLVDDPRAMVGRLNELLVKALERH
The following applies: read-out: TRAP-1.

In series [9] the target is Hsp90β (Homo sapiens, UniProt P08238).
Chain of Hsp90β (P08238 whole entry): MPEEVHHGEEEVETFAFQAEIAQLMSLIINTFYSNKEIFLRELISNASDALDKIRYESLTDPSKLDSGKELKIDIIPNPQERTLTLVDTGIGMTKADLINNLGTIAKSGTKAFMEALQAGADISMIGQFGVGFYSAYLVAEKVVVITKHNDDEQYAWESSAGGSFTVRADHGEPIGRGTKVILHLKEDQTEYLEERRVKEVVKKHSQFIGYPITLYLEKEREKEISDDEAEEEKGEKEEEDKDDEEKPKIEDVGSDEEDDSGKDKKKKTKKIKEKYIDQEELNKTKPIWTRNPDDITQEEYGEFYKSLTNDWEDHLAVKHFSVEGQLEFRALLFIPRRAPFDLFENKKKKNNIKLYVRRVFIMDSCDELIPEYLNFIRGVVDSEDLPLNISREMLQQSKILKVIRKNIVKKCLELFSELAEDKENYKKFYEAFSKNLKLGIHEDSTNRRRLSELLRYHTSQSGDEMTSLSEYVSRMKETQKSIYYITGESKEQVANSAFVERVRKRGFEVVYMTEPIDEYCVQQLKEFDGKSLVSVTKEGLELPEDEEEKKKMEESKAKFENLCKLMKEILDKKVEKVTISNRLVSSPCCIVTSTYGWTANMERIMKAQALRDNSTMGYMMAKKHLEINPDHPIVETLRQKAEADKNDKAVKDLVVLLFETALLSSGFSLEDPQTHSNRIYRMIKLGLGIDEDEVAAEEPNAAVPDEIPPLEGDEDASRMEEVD
Series [10] concerns 97 kinases. Put plainly: Kinase screen (Discoverx scanEDGE / KINOMEscan). It is filed as binding. To be noted: tested at 10 uM.
Series [11] addresses Hsp90α (Homo sapiens, UniProt P07900). Put plainly: biochemical. To be noted: FP competition, 6 nM Cy3B-GM, 10 nM protein, 4° C. for 24 h.
Series [12] has as its target Grp94 (Canis lupus familiaris, UniProt P41148). To be noted: read-out: Grp94; FP competition, 6 nM Cy3B-GM, 10 nM protein, 4° C. for 24 h.
Series [13] addresses T1, Trap-1. To be noted: relative to Hsp90.

Chain of Grp94 (P41148 with tags, fused parts or gaps DELINS287-327GGGG): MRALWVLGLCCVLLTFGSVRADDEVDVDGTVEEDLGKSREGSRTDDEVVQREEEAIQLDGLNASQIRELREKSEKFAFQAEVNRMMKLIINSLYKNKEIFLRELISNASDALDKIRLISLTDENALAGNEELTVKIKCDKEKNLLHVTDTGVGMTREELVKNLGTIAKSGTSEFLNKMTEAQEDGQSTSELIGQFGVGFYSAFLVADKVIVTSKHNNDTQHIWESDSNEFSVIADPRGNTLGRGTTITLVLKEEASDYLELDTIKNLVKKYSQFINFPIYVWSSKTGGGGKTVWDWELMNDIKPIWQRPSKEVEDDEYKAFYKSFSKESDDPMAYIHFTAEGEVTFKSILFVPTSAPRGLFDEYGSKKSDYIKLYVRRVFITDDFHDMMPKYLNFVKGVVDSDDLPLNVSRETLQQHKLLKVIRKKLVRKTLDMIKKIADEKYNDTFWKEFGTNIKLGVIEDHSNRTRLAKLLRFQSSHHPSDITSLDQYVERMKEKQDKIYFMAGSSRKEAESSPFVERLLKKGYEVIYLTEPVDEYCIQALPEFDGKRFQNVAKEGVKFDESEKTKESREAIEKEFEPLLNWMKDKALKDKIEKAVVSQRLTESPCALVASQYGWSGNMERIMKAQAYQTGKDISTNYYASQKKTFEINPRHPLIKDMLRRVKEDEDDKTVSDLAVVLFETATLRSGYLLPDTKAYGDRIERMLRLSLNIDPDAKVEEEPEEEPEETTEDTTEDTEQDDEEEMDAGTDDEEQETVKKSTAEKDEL

For `COC1=C2C[C@@H](C)C[C@H](OC)[C@H](O)[C@@H](C)/C=C(\C)[C@H](OC(N)=O)[C@@H](OC)/C=C\C=C(/C)C(=O)NC(=CC1=O)C2=O` [GM, geldanamycin, reference compound], the “toxicity to C2C12 cells” value in [1] is reported as “cell killing”.
Consider `COc1cc(Cc2nc3c(N)nc(F)nc3n2CCOC(C)C)cc(OC)c1OC` [PU-29F], for which the TLR9 trafficking entry in series [2] is listed as “minimally effecting; also recorded: fails to inhibit TLR^9 trafficking”. In addition, the Hsp70 induction result in series [3] was “induces Hsp70”. Moreover, the IGF-II secretion entry in series [4] is reported as “minimally effecting”. The “effect on HER2 architecture at the plasma membrane” value in [5] was “failed to disturb the membrane HER^2 architecture”. For the same compound, in [6], the induction of apoptosis entry is “very little effect”. Moreover, in series [7], the AKT degradation entry is on record as “degradation of AKT; also recorded: degrade AKT” and the Hsp70 induction result is listed as “dose-dependent increase in Hsp90 levels; also recorded: induce Hsp70”.
Consider `C#CCCCn1c(Sc2ccc(Cl)cc2Cl)nc2c(N)ncnc21` [PU-H39], for which the IC50 in series [8] was 145 ± 13.4 µM; in series [9], above 300 µM; in [11], above 300 µM; in [12] it was 0.12 ± 0.04 µM. The “effect on the tested 97 kinases” value in series [10] is reported as “no significant effect”.
Take `CC(C)NCCCn1c(Sc2cc3c(cc2I)OCO3)nc2c(N)ncnc21` [PU-H71]: the TLR9 trafficking result in series [2] is “inhibit TLR^9 trafficking”. In addition, the Hsp70 induction entry in series [3] is on record as “induce Hsp70”. Also, the “decrease in binding efficacy for Trap-1” value in [13] is reported as 5 fold. Besides, in [6], the induction of apoptosis entry is reported as “very little effect”. For the same compound, in [7], the AKT degradation result is on record as “degrade AKT” and the Hsp70 induction result was “induce Hsp70”.

These data come from patent publication US12600725B2 (Memorial Sloan-Kettering Cancer Center, priority 2013, dated 2026).
